From patent US10526327B2, “Histone demethylase inhibitors” (CELGENE QUANTICEL RESEARCH, INC., priority 2013, dated 2020)
pIC50: −log10 of the molar value.

Target: T1, Jarid1A (Homo sapiens, UniProt P29375)
T1 construct: purchased BPS Bioscience 50110
T1 sequence (P29375 1-1090): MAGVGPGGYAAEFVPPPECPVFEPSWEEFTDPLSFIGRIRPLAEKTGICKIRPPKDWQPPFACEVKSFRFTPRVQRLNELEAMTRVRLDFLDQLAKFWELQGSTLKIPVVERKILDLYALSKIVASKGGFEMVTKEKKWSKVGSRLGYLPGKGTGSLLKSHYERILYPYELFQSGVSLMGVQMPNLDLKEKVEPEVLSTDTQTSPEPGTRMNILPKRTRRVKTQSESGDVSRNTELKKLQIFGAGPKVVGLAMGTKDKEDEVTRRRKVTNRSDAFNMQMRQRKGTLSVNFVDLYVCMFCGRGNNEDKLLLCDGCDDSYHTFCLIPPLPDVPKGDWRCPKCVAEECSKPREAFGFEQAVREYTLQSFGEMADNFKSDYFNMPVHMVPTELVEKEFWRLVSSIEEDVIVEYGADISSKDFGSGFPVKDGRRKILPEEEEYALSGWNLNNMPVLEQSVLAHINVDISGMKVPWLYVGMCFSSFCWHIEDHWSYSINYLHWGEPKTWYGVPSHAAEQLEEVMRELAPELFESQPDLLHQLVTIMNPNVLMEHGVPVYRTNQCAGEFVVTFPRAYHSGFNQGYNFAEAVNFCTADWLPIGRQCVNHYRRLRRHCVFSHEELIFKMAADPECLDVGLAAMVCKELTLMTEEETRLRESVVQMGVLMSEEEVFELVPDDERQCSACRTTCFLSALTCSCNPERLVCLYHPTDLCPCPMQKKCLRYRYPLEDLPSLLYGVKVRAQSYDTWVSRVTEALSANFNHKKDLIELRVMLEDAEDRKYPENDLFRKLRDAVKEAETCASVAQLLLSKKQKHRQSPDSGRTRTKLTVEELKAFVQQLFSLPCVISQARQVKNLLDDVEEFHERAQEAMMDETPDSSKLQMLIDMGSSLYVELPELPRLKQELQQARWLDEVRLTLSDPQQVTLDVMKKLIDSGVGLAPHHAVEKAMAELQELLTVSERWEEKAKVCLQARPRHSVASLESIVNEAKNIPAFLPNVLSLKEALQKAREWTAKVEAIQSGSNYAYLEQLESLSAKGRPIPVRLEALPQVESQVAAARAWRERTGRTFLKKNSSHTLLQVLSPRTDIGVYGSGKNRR
Assay: Jarid1A in vitro enzyme inhibition assay (TR-FRET)
Type: biochemical
Procedure, shortened: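 Demethylation of 300 nM biotin-H3K4me3 peptide by 1 nM baculovirus-expressed Jarid1A (aa 1–1090) with 2 μM α-ketoglutarate, Fe(II) and ascorbate, pH 7.3, 30 min at room temperature. Stopped with EDTA; H3K4me1-2 product detected by TR-FRET (Eu anti-H3K4me1-2/streptavidin-APC). IC50 fitted from 665/615 ratio over 11-point dilutions.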

pIC50	Structure (SMILES)
≥ 7.00	O=C(C1CCNCC1)N1CC[C@H](n2cc(Oc3nc(O)c4ccncc4n3)cn2)C1 [Example 143, 2-({1-[(3S)-1-(piperidine-4-carbonyl)pyrrolidin-3-yl]-1H-pyrazol-4-yl}oxy)pyrido[3,4-d]pyrimidin-4-ol]
≥ 7.00	CNCC(=O)N1CC[C@H](n2cc(Oc3nc(O)c4ccncc4n3)cn2)C1 [Example 144, 1-[(3S)-3-[4-({4-hydroxypyrido[3,4-d]pyrimidin-2-yl}oxy)-1H-pyrazol-1-yl]pyrrolidin-1-yl]-2-(methylamino)ethan-1-one]
≥ 7.00	Oc1nc(Oc2cnn([C@H]3CCN(c4ccccc4)C3)c2)nc2cnccc12 [Example 145, 2-({1-[(3S)-1-phenylpyrrolidin-3-yl]-1H-pyrazol-4-yl}oxy)pyrido[3,4-d]pyrimidin-4-ol]
≥ 7.00	Oc1nc(Oc2cnn([C@H]3CCN(c4ccc(F)cc4)C3)c2)nc2cnccc12 [Example 146, 2-({1-[(3S)-1-(4-fluorophenyl)pyrrolidin-3-yl]-1H-pyrazol-4-yl}oxy)pyrido[3,4-d]pyrimidin-4-ol]
≥ 7.00	Oc1nc(Oc2cnn([C@H]3CCN(c4ccccc4F)C3)c2)nc2cnccc12 [Example 147, 2-({1-[(3S)-1-(2-fluorophenyl)pyrrolidin-3-yl]-1H-pyrazol-4-yl}oxy)pyrido[3,4-d]pyrimidin-4-ol]
≥ 7.00	Oc1nc(Oc2cnn([C@H]3CCN(c4ccc(Cl)cc4)C3)c2)nc2cnccc12 [Example 148, 2-({1-[(3S)-1-(4-chlorophenyl)pyrrolidin-3-yl]-1H-pyrazol-4-yl}oxy)pyrido[3,4-d]pyrimidin-4-ol]
≥ 7.00	Oc1nc(Oc2cnn([C@@H]3CCCNC3)c2)nc2cnccc12 [Example 149, 2-({1-[(3R)-piperidin-3-yl]-1H-pyrazol-4-yl}oxy)pyrido[3,4-d]pyrimidin-4-ol]
≥ 7.00	CCS(=O)(=O)N1CCC[C@@H](n2cc(Oc3nc(O)c4ccncc4n3)cn2)C1 [Example 150, 2-({1-[(3R)-1-(ethanesulfonyl)piperidin-3-yl]-1H-pyrazol-4-yl}oxy)pyrido[3,4-d]pyrimidin-4-ol]
≥ 7.00	O=S(=O)(c1ccccc1)N1CCC[C@@H](n2cc(Oc3nc(O)c4ccncc4n3)cn2)C1 [Example 152, 2-({1-[(3R)-1-(benzenesulfonyl)piperidin-3-yl]-1H-pyrazol-4-yl}oxy)pyrido[3,4-d]pyrimidin-4-ol]
≥ 7.00	CC(=O)N1CCC[C@@H](n2cc(Oc3nc(O)c4ccncc4n3)cn2)C1 [Example 153, 1-[(3R)-3-[4-({4-hydroxypyrido[3,4-d]pyrimidin-2-yl}oxy)-1H-pyrazol-1-yl]piperidin-1-yl]ethan-1-one]
≥ 7.00	N#CCC(=O)N1CCC[C@@H](n2cc(Oc3nc(O)c4ccncc4n3)cn2)C1 [Example 154, 3-[(3R)-3-[4-({4-hydroxypyrido[3,4-d]pyrimidin-2-yl}oxy)-1H-pyrazol-1-yl]piperidin-1-yl]-3-oxopropanenitrile]
≥ 7.00	O=C(CO)N1CC[C@H](n2cc(Oc3nc(O)c4ccncc4n3)cn2)C1 [Example 155, 2-hydroxy-1-[(3S)-3-[4-({4-hydroxypyrido[3,4-d]pyrimidin-2-yl}oxy)-1H-pyrazol-1-yl]pyrrolidin-1-yl]ethan-1-one]
≥ 7.00	O=C(C1CC1)N1CCC[C@@H](n2cc(Oc3nc(O)c4ccncc4n3)cn2)C1 [Example 156, 2-({1-[(3R)-1-cyclopropanecarbonylpiperidin-3-yl]-1H-pyrazol-4-yl}oxy)pyrido[3,4-d]pyrimidin-4-ol]
≥ 7.00	O=C(c1ccccc1)N1CCC[C@@H](n2cc(Oc3nc(O)c4ccncc4n3)cn2)C1 [Example 157, 2-({1-[(3R)-1-benzoylpiperidin-3-yl]-1H-pyrazol-4-yl}oxy)pyrido[3,4-d]pyrimidin-4-ol]
≥ 7.00	Oc1nc(Oc2cnn([C@@H]3CCCN(Cc4ccccc4)C3)c2)nc2cnccc12 [Example 158, 2-({1-[(3R)-1-benzylpiperidin-3-yl]-1H-pyrazol-4-yl}oxy)pyrido[3,4-d]pyrimidin-4-ol]
≥ 7.00	Oc1nc(Oc2cnn([C@@H]3CCCN(c4ccc(F)cc4)C3)c2)nc2cnccc12 [Example 159, 2-({1-[(3R)-1-(4-fluorophenyl)piperidin-3-yl]-1H-pyrazol-4-yl}oxy)pyrido[3,4-d]pyrimidin-4-ol]

pIC50	Structure (SMILES)
≥ 7.00	Oc1nc(Oc2cnn([C@H]3CCCNC3)c2)nc2cnccc12 [Example 160, 2-({1-[(3S)-piperidin-3-yl]-1H-pyrazol-4-yl}oxy)pyrido[3,4-d]pyrimidin-4-ol]
≥ 7.00	CCS(=O)(=O)N1CCC[C@H](n2cc(Oc3nc(O)c4ccncc4n3)cn2)C1 [Example 161, 2-({1-[(3S)-1-(ethanesulfonyl)piperidin-3-yl]-1H-pyrazol-4-yl}oxy)pyrido[3,4-d]pyrimidin-4-ol]
≥ 7.00	O=S(=O)(C1CC1)N1CCC[C@H](n2cc(Oc3nc(O)c4ccncc4n3)cn2)C1 [Example 162, 2-({1-[(3S)-1-(cyclopropanesulfonyl)piperidin-3-yl]-1H-pyrazol-4-yl}oxy)pyrido[3,4-d]pyrimidin-4-ol]
≥ 7.00	O=S(=O)(c1ccccc1)N1CCC[C@H](n2cc(Oc3nc(O)c4ccncc4n3)cn2)C1 [Example 163, 2-({1-[(3S)-1-(benzenesulfonyl)piperidin-3-yl]-1H-pyrazol-4-yl}oxy)pyrido[3,4-d]pyrimidin-4-ol]
≥ 7.00	CC(=O)N1CCC[C@H](n2cc(Oc3nc(O)c4ccncc4n3)cn2)C1 [Example 164, 1-[(3S)-3-[4-({4-hydroxypyrido[3,4-d]pyrimidin-2-yl}oxy)-1H-pyrazol-1-yl]piperidin-1-yl]ethan-1-one]
≥ 7.00	O=C(C1CC1)N1CCC[C@H](n2cc(Oc3nc(O)c4ccncc4n3)cn2)C1 [Example 165, 2-({1-[(3S)-1-cyclopropanecarbonylpiperidin-3-yl]-1H-pyrazol-4-yl}oxy)pyrido[3,4-d]pyrimidin-4-ol]
≥ 7.00	N#CCC(=O)N1CCC[C@H](n2cc(Oc3nc(O)c4ccncc4n3)cn2)C1 [Example 166, 3-[(3S)-3-[4-({4-hydroxypyrido[3,4-d]pyrimidin-2-yl}oxy)-1H-pyrazol-1-yl]piperidin-1-yl]-3-oxopropanenitrile]
≥ 7.00	O=C(c1ccccc1)N1CCC[C@H](n2cc(Oc3nc(O)c4ccncc4n3)cn2)C1 [Example 167, 2-({1-[(3S)-1-benzoylpiperidin-3-yl]-1H-pyrazol-4-yl}oxy)pyrido[3,4-d]pyrimidin-4-ol]
≥ 7.00	Oc1nc(Oc2cnn([C@H]3CCCN(Cc4ccccc4)C3)c2)nc2cnccc12 [Example 168, 2-({1-[(3S)-1-benzylpiperidin-3-yl]-1H-pyrazol-4-yl}oxy)pyrido[3,4-d]pyrimidin-4-ol]
5.00 to 6.00	Oc1nc(OCc2ccc(C(F)(F)F)cc2)nc2cnccc12 [Example 170, 2-{[4-(trifluoromethyl)phenyl]methoxy}pyrido[3,4-d]pyrimidin-4-ol]
5.00 to 6.00	Oc1nc(OCc2ccccc2Cl)nc2cnccc12 [Example 171, 2-[(2-chlorophenyl)methoxy]pyrido[3,4-d]pyrimidin-4-ol]
5.00 to 6.00	Oc1nc(OCc2c(Cl)cccc2Cl)nc2cnccc12 [Example 172, 2-[(2,6-dichlorophenyl)methoxy]pyrido[3,4-d]pyrimidin-4-ol]
5.00 to 6.00	Oc1nc(OCc2cccc(Cl)c2Cl)nc2cnccc12 [Example 173, 2-[(2,3-dichlorophenyl)methoxy]pyrido[3,4-d]pyrimidin-4-ol]
≥ 7.00	Oc1nc(OCCc2ccc(Cl)cc2)nc2cnccc12 [Example 174, 2-[2-(4-chlorophenyl)ethoxy]pyrido[3,4-d]pyrimidin-4-ol]
5.00 to 6.00	Oc1nc(OCCc2ccc(Cl)c(Cl)c2)nc2cnccc12 [Example 175, 2-[2-(3,4-dichlorophenyl)ethoxy]pyrido[3,4-d]pyrimidin-4-ol]
5.00 to 6.00	Oc1nc(OC(c2ccccc2)C(F)(F)F)nc2cnccc12 (centres unmarked) [Example 176, 2-(2,2,2-trifluoro-1-phenylethoxy)pyrido[3,4-d]pyrimidin-4-ol]
